This experiment addresses EZH2 (Homo sapiens (Human), UniProt Q15910). The experiment in a line: PRC2 enzyme assay on peptide substrates. Type of experiment: biochemical. Conditions: PRC2 enzyme assays on peptide substrates; 4 nM enzyme, 30 min preincubation at 25° C.; read-out: EZH2 IC50. An excerpt: General Materials. S-adenosylmethionine (SAM), S-adenosylhomocyteine (SAH), bicine, KCl, Tween20, dimethylsulfoxide (DMSO) and bovine skin gelatin (BSG) were purchased from Sigma-Aldrich at the highest level of purity possible. Dithiothreitol (DTT) was purchased from EMD. ^3H-SAM was purchased from American Radiolabeled Chemicals with a specific activity of 80 Ci/mmol. 384-well streptavidin Flashplates were purchased from PerkinElmer.
Substrates. […] The sequences are listed below.
Recombinant PRC2 Enzymes. Human PRC2 enzymes were purified as 4-component enzyme complexes co-expressed in Spodoptera frugiperda (sf9) cells using a baculovirus expression system. The subunits expressed were wild-type EZH2 (NM_004456) or EZH2 Y641F, N, H, S or C mutants generated from the wild-type EZH2 construct, EED (NM_003797), Suz12 (NM_015355) and RbAp48 (NM_005610). The EED subunit contained an N-terminal FLAG tag that was used to purify the entire 4-component complex from sf9 cell lysates.
General Procedure for PRC2 Enzyme Assays on Peptide Substrates. The assays were all performed in a buffer consisting of 20 mM bicine (pH=7.6), 0.5 mM DTT, 0.005% BSG and 0.002% Tween20, prepared on the day of use. […] DMSO (1 μL) was added to columns 11, 12, 23, 24, rows A-H for the maximum signal control, and SAH, a known product and inhibitor of PRC2 (1 μL) was added to columns 11, 12, 23, 24, rows I-P for the minimum signal control. A cocktail (40 μL) containing the wild-type PRC2 enzyme and H3K27me0 peptide or any of the Y641 mutant enzymes and H3K27me2 peptide was added by Multidrop Combi (Thermo). The compounds were allowed to incubate with PRC2 for 30 min at 25° C., then a cocktail (10 μL) containing a mixture of non-radioactive and ^3H-SAM was added to initiate the reaction (final volume=51 μL). […] The assays were stopped by the addition of non-radioactive SAM (10 μL) to a final concentration of 600 μM, which dilutes the ^3H-SAM to a level where its incorporation into the peptide substrate is no longer detectable. 50 μL of the reaction in the 384-well polypropylene plate was then transferred to a 384-well Flashplate and the biotinylated peptides were allowed to bind to the streptavidin surface for at least 1 h before being washed three times with 0.1% Tween20 in a Biotek ELx405 plate washer. The plates were then read in a PerkinElmer TopCount platereader to measure the quantity of ^3H-labeled peptide bound to the Flashplate surface, measured as disintegrations per minute (dpm) or alternatively, referred to as counts per minute (cpm).
Where dpm=disintegrations per minute, cmpd=signal in assay well, and min and max are the respective minimum and maximum signal controls.
Where top and bottom are the normally allowed to float, but may be fixed at 100 or 0 respectively in a 3-parameter fit. The Hill Coefficient normally allowed to float but may also be fixed at 1 in a 3-parameter fit. Y is the % inhibition and X is the compound concentration.

Chain of EZH2 (Q15910 other isoform, or with tags, fused parts or gaps): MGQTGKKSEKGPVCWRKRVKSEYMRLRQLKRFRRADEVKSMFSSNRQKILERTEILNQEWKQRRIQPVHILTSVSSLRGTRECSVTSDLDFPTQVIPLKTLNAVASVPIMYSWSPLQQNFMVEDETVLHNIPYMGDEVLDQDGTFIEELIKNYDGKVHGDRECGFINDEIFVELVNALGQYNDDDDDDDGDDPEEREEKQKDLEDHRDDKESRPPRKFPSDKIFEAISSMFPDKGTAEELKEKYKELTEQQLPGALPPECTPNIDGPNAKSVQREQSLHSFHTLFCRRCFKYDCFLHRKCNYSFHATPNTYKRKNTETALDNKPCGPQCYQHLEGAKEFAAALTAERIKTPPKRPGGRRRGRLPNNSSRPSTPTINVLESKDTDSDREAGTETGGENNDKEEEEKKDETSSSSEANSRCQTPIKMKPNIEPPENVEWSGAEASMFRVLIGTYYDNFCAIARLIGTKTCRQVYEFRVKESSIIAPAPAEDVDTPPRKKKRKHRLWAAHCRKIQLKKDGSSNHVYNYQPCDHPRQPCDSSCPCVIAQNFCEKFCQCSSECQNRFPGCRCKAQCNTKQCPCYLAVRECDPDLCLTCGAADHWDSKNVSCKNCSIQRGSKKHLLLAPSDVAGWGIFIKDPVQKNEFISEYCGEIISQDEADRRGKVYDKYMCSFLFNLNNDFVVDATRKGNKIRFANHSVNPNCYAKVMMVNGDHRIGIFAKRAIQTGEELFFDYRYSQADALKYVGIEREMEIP
Chain of EZH2 (O75530 whole entry partner): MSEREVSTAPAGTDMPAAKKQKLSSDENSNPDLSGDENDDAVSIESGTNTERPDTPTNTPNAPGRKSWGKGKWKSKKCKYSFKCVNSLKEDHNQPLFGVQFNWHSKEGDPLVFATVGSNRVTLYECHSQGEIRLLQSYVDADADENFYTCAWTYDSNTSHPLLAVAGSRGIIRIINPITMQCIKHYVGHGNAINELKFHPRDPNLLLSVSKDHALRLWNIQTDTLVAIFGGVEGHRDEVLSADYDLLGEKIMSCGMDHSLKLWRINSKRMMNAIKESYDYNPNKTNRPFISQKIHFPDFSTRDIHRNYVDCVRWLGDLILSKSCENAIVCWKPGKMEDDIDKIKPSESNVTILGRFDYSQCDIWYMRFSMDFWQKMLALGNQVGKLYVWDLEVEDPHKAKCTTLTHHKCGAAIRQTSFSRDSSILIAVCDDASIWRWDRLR
Chain of EZH2 (Q15022 whole entry partner): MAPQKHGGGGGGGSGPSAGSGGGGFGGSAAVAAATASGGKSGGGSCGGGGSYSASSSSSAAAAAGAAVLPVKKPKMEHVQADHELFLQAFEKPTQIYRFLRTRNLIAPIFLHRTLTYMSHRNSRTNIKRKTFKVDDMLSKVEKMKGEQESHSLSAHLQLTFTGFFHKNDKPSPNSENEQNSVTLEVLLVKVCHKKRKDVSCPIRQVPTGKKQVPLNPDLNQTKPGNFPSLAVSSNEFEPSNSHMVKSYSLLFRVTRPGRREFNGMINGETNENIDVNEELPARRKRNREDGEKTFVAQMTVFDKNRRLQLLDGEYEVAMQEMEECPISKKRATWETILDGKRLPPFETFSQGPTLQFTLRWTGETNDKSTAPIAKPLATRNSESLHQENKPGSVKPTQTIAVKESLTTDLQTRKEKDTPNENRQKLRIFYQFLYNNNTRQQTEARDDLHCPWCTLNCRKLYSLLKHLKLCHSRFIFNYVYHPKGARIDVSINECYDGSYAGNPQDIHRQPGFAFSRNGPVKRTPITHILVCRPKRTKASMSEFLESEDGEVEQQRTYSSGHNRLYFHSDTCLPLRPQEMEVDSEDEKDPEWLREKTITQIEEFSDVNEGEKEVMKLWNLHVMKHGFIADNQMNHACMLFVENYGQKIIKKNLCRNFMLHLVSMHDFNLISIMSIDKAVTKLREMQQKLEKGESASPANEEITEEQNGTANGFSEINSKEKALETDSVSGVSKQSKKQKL
Chain of EZH2 (Q09028 whole entry partner): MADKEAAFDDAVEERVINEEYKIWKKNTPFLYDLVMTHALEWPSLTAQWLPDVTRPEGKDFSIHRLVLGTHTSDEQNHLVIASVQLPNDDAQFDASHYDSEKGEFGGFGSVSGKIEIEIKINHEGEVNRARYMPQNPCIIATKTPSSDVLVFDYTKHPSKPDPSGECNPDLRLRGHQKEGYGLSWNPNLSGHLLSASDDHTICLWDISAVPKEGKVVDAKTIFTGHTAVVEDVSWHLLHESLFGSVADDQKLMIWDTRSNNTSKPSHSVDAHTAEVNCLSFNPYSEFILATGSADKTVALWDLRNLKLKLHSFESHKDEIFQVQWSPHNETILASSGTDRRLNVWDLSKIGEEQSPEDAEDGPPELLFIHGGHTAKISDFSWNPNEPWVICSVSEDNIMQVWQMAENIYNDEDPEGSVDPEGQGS

Usually IC50 stands for the point on the concentration scale where inhibition reaches its midpoint. On to “1-cyclopentyl-N-((4,6-dimethyl-2-oxo-1,2-dihydropyridin-3-yl)methyl)-6-(2,2,6,6-tetramethylpiperidin-4-yl)-1H-pyrazolo[3,4-b]pyridine-4-carboxamide [Compound B-4]”, for which the IC50 was < 300 nM. The result for “1-cyclopentyl-N-((4,6-dimethyl-2-oxo-1,2-dihydropyridin-3-yl)methyl)-6-(2-ethoxy-4-((4-ethylpiperazin-1-yl)sulfonyl)phenyl)-1H-indazole-4-carboxamide [Compound C-14]” reads < 300 nM; that for `Cc1cc(C)c(CNC(=O)c2cc(-c3ccc(CN4CCOCC4)cc3)nc3c2cnn3C2CCCC2)c(=O)[nH]1` [Compound A-1, 1-cyclopentyl-N-((4,6-dimethyl-2-oxo-1,2-dihydropyridin-3-yl)methyl)-6-(4-(morpholinomethyl)phenyl)-1H-pyrazolo[3,4-b]pyridine-4-carboxamide], < 300 nM.

Take `Cc1cc(C)c(CNC(=O)c2cc(-c3cccc(CN(C)C)c3)nc3c2cnn3C(C)C)c(=O)[nH]1` [Compound A-3, N-((4,6-dimethyl-2-oxo-1,2-dihydropyridin-3-yl)methyl)-6-(3-((dimethylamino)methyl)phenyl)-1-isopropyl-1H-pyrazolo[3,4-b]pyridine-4-carboxamide]: the IC50 lay within 300 to 1000 nM. `Cc1cc(C)c(CNC(=O)c2cc(-c3cnc(N)nc3)nc3c2cnn3C(C)C)c(=O)[nH]1` [Compound A-4, 6-(2-aminopyrimidin-5-yl)-N-((4,6-dimethyl-2-oxo-1,2-dihydropyridin-3-yl)methyl)-1-isopropyl-1H-pyrazolo[3,4-b]pyridine-4-carboxamide]: the IC50 was in the range of 300 to 1000 nM. For `Cc1cc(C)c(CNC(=O)c2cc(-c3ccc(N4CCN(C(=O)OC(C)(C)C)CC4)nc3)nc3c2cnn3C(C)C)c(=O)[nH]1` [Compound A-6, tert-butyl 4-(5-(4-(((4,6-dimethyl-2-oxo-1,2-dihydropyridin-3-yl)methyl)carbamoyl)-1-isopropyl-1H-pyrazolo[3,4-b]pyridin-6-yl)pyridin-2-yl)piperazine-1-carboxylate], the IC50 is 300 to 1000 nM. The value for `Cc1cc(C)c(CNC(=O)c2cc(-c3ccc(N4CCNCC4)cc3)nc3c2cnn3C(C)C)c(=O)[nH]1` [Compound A-7, N-((4,6-dimethyl-2-oxo-1,2-dihydropyridin-3-yl)methyl)-1-isopropyl-6-(4-(piperazin-1-yl)phenyl)-1H-pyrazolo[3,4-b]pyridine-4-carboxamide] was < 300 nM.

As for `Cc1cc(C)c(CNC(=O)c2cc(-c3ccc(N4CCNCC4)nc3)nc3c2cnn3C(C)C)c(=O)[nH]1` [Compound A-10, N-((4,6-dimethyl-2-oxo-1,2-dihydropyridin-3-yl)methyl)-1-isopropyl-6-(6-(piperazin-1-yl)pyridin-3-yl)-1H-pyrazolo[3,4-b]pyridine-4-carboxamide], the half-maximal inhibitory concentration (IC50) was < 300 nM. With `Cc1cc(C)c(CNC(=O)c2cc(-c3cccc(C(=O)NCCCN(C)C)c3)nc3c2cnn3C(C)C)c(=O)[nH]1` [Compound A-13, N-((4,6-dimethyl-2-oxo-1,2-dihydropyridin-3-yl)methyl)-6-(3-((3-(dimethylamino)propyl)carbamoyl)phenyl)-1-isopropyl-1H-pyrazolo[3,4-b]pyridine-4-carboxamide], the concentration for half-maximal inhibition (IC50) was < 300 nM. The value for `Cc1cc(C)c(CNC(=O)c2cc(-c3ccc(CN)cc3)nc3c2cnn3C(C)C)c(=O)[nH]1` [Compound A-14, 6-(4-(aminomethyl)phenyl)-N-((4,6-dimethyl-2-oxo-1,2-dihydropyridin-3-yl)methyl)-1-isopropyl-1H-pyrazolo[3,4-b]pyridine-4-carboxamide] was < 300 nM; that for `Cc1cc(C)c(CNC(=O)c2cc(-c3ccc(CN(C)CCCN(C)C)cc3)nc3c2cnn3C(C)C)c(=O)[nH]1` [Compound A-15, N-((4,6-dimethyl-2-oxo-1,2-dihydropyridin-3-yl)methyl)-6-(4-(((3-(dimethylamino)propyl)(methyl)amino)methyl)phenyl)-1-isopropyl-1H-pyrazolo[3,4-b]pyridine-4-carboxamide] was < 300 nM; that for `Cc1cc(C)c(CNC(=O)c2cc(-c3ccc(CN4CCOCC4)cc3)nc3c2c(Br)nn3C(C)C)c(=O)[nH]1` [Compound A-17, 3-bromo-N-((4,6-dimethyl-2-oxo-1,2-dihydropyridin-3-yl)methyl)-1-isopropyl-6-(4-(morpholinomethyl)phenyl)-1H-pyrazolo[3,4-b]pyridine-4-carboxamide] was < 300 nM.

Take `Cc1cc(C)c(CNC(=O)c2cc(-c3ccc(C(=O)NCCN(C)C)cc3)nc3c2cnn3C(C)C)c(=O)[nH]1` [Compound A-18]: the IC50 is < 300 nM. The value for `Cc1cc(C)c(CNC(=O)c2cc(-c3ccc(CN(C)CCN4CCCC4)cc3)nc3c2cnn3C(C)C)c(=O)[nH]1` [Compound A-21] was 300 to 1000 nM; that for `Cc1cc(C)c(CNC(=O)c2cc(-c3ccc(CN(C)C)cc3)nc3c2cnn3C(C)C)c(=O)[nH]1` [Compound A-22] was 300 to 1000 nM; that for `Cc1cc(C)c(CNC(=O)c2cc(-c3cccc(CNCCN)c3)nc3c2cnn3C(C)C)c(=O)[nH]1` [Compound A-26] was 300 to 1000 nM.

As to `Cc1cc(C)c(CNC(=O)c2cc(-c3ccnc(N4CCN(C(=O)OC(C)(C)C)CC4)c3)nc3c2cnn3C(C)C)c(=O)[nH]1` [Compound A-27], the half-maximal inhibitory concentration (IC50) was 300 to 1000 nM.

On to `Cc1cc(C)c(CNC(=O)c2cc(-c3cccc(CN)c3)nc3c2cnn3C(C)C)c(=O)[nH]1` [Compound A-32], for which the 50% inhibitory concentration (IC50) was 300 to 1000 nM. In the case of `Cc1cc(C)c(CNC(=O)c2cc(-c3ccc(CN(C)CCN)cc3)nc3c2cnn3C(C)C)c(=O)[nH]1` [Compound A-33], the IC50 lay within 300 to 1000 nM. The value for `Cc1cc(C)c(CNC(=O)c2cc(-c3cccc(CN(C)CCN)c3)nc3c2cnn3C(C)C)c(=O)[nH]1` [Compound A-34] was 300 to 1000 nM; that for `Cc1cc(C)c(CNC(=O)c2cc(-c3ccnc(N4CCNCC4)c3)nc3c2cnn3C(C)C)c(=O)[nH]1` [Compound A-37] was 300 to 1000 nM; that for `Cc1cc(C)c(CNC(=O)c2cc(-c3cccc(CN(C)CCN4CCCC4)c3)cc3c2cnn3C(C)C)c(=O)[nH]1` [Compound A-41] was 300 to 1000 nM. The result for `Cc1cc(CN(C)C)c(CNC(=O)c2cc(-c3ccc(CN4CCOCC4)cc3)nc3c2cnn3C(C)C)c(=O)[nH]1` [Compound A-43] reads 300 to 1000 nM; that for `Cc1cc(C)c(CNC(=O)c2cc(-c3ccc(N4CCN(C(=O)OC(C)(C)C)CC4)nc3)nc3c2cnn3C(C)C)c(=O)[nH]1` [Compound A-44], 300 to 1000 nM.

With `Cc1cc(C)c(CNC(=O)c2c(Cl)c(-c3ccc4c(c3)OCCO4)cc3c2cnn3C(C)C)c(=O)[nH]1` [Compound A-47], the half-inhibitory concentration (IC50) was in the range of 300 to 1000 nM. The value for `Cc1cc(C)c(CNC(=O)c2cc(-c3cnn(C)c3)nc3c2cnn3C(C)C)c(=O)[nH]1` [Compound A-48] was 1000 to 3000 nM; that for `Cc1cc(C)c(CNC(=O)c2cc(-c3cn[nH]c3)nc3c2cnn3C(C)C)c(=O)[nH]1` [Compound A-49] was 1000 to 3000 nM; that for `Cc1cc(C)c(CNC(=O)c2cc(-c3ccc(N)nc3)nc3c2cnn3C(C)C)c(=O)[nH]1` [Compound A-50] was 1000 to 3000 nM.

Regarding `Cc1cc(C)c(CNC(=O)c2cc(-c3ccc(N4CCN(C(=O)OC(C)(C)C)CC4)cc3)nc3c2cnn3C(C)C)c(=O)[nH]1` [Compound A-51], the IC50 was in the range of 1000 to 3000 nM. The result for `Cc1cc(C)c(CNC(=O)c2cc(-c3ccc(C(=O)O)cc3)nc3c2cnn3C(C)C)c(=O)[nH]1` [Compound A-53] reads 1000 to 3000 nM.

In the case of `Cc1cc(C)c(CNC(=O)c2cc(-c3cccc(CN4CCOCC4)c3)nc3c2cnn3C(C)C)c(=O)[nH]1` [Compound A-54], the half-inhibitory concentration (IC50) was 1000 to 3000 nM. The result for `CNCCN(C)Cc1cccc(-c2cc(C(=O)NCc3c(C)cc(C)[nH]c3=O)c3c(n2)N(C(C)C)NC3)c1` [Compound A-58] reads 1000 to 3000 nM. The result for `Cc1ccc(CNC(=O)c2cc(-c3ccc(N4CCN(C)CC4)nc3)nc3c2cnn3C(C)C)c(=O)[nH]1` [Compound A-60] reads 1000 to 3000 nM; that for `Cc1cc(C)c(CNC(=O)c2cc(-c3cccnc3N3CCN(C)CC3)nc3c2cnn3C(C)C)c(=O)[nH]1` [Compound A-63], 1000 to 3000 nM.

For the origin of these results see patent US9637472B2, “Substituted 6,5-fused bicyclic heteroaryl compounds” (Epizyme, Inc., priority 2011, dated 2017).
